Source: US5223517A, “Heterocyclically substituted cycloalkano[b]-indolesulphonamides” (Bayer Aktiengesellschaft, priority 1990, dated 1993)
Structures can show the parent of a compound that is named as a salt.

System: platelet aggregation (platelet-rich citrate plasma, collagen)
Assay: platelet aggregation-inhibiting action (TAI), collagen-induced, platelet-rich plasma, turbidometric method
Assay type: cell-based
Conditions: Homo sapiens, 0.1 h, range of the minimum effective concentration, PRP, 37° C., result after 6 minutes, read-out: TAI threshold concentration
Text: Blood from healthy subjects of both sexes was used for the determination of the platelet aggregation-inhibiting action. As an anticoagulant, one part of 3.8% strength aqueous sodium citrate solution was admixed to 9 parts of blood. Platelet-rich citrate plasma (PRP)^1 is obtained from this blood by means of centrifugation (Jurgens/Beller, Klinische Methoden der Blutgerinnungsanalyse (Clinical Methods of Blood Coagulation Analysis); Thieme Verlag, Stuttgart, 1959).
For these investigations, 0.8 ml of PRP and 0.1 ml of the active compound solution were preincubated in a water bath at 37° C. The platelet aggregation was then determined by the turbidometric method (Born, G. V. R., J. Physiol. (London), 162, 67, 1962) in an aggregometer at 37° C. (Therapeutische Berichte 47, 80-86, 1975). To this end, 0.1 ml of collagen, an aggregation-inducing agent, was added to the preincubated sample. The change in the optical density in the sample of PRP^1 was recorded during a period of 6 minutes and the results was determined after 6 minutes. To do this, the percentage inhibition is calculated compared to the control.
The range of the minimum effective concentration is given as the threshold concentration.

**Q.** With O=C(O)CCn1c2c(c3cc(OCc4ccccn4)ccc31)CC(N(Cc1ccccn1)S(=O)(=O)c1ccc(F)cc1)CC2 (stereo not shown) [Example 25] as the compound, how does the minimal effective concentration read?
**A.** 0.03 to 0.1 µg/mL

**Q.** For O=C(O)CCn1c2c(c3c(Cc4cccnc4)cccc31)CC(NS(=O)(=O)c1ccc(F)cc1)CC2 (stereo not shown) [Example 18], which minimal effective concentration is on record?
**A.** 0.3 to 1 µg/mL

**Q.** Which minimal effective concentration does the source give for O=C(O)CCn1c2c(c3cc(C(=O)CCc4cccnc4)ccc31)CC(NS(=O)(=O)c1ccc(F)cc1)CC2 (stereo not shown) [Example 20] here?
**A.** 0.03 to 0.1 µg/mL

**Q.** How did the minimal effective concentration turn out when O=C(O)CCn1c2c(c3cc(CCc4cccnc4)ccc31)CC(NS(=O)(=O)c1ccc(F)cc1)CC2 (stereo not shown) [Example 17] was run?
**A.** 0.03 to 0.1 µg/mL

Target: T1, thromboxane synthase (Homo sapiens, UniProt P24557)
T1 construct: 1 ml of the platelet suspension and 0.01 ml of the test preparation in 10% DMSO are incubated at 37° C. for 2 min; endogenous in cells; host or cells: washed human platelets from blood of healthy donors
T1 sequence (P24557 1-533): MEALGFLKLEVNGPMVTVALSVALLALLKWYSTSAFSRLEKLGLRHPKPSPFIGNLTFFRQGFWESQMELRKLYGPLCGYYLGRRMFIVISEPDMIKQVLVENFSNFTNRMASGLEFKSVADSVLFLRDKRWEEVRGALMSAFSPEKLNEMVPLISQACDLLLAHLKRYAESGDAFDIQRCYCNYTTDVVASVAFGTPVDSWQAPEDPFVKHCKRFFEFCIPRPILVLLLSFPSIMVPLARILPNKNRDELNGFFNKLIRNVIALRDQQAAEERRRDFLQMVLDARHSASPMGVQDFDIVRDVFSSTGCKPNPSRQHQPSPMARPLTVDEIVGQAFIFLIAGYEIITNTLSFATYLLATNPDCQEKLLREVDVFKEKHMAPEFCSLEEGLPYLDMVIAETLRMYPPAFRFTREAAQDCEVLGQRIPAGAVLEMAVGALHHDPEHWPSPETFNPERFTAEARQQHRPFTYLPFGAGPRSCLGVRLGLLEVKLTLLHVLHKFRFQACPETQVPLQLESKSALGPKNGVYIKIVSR
Assay: Measurement of the thromboxane synthase in washed human platelets
Assay type: cell-based
Conditions: 3H-arachidonic acid, 37° C., 10 min, read-out: IC50 (50% inhibition of thromboxane formation compared to the control)

**Q.** Which IC50 does the source give for O=C(O)CCn1c2c(c3ccc(-c4cccnc4)cc31)CC(NS(=O)(=O)c1ccc(F)cc1)CC2 (stereo not shown) [Example 24] here?
**A.** 100 nM

**Q.** Which IC50 does the source give for O=C(O)CCn1c2c(c3cc(Cc4cccnc4)ccc31)CC(NS(=O)(=O)c1ccc(F)cc1)CC2 (stereo not shown) [Example 11, 9-(2-Carboxyethyl)-3-(4-fluorophenylsulphonamido)-6-(3-pyridyl-methyl)-1,2,3,4-tetrahydro-carbazole hydrochloride] here?
**A.** 200 nM

**Q.** O=C(O)CCn1c2c(c3cc(CCc4cccnc4)ccc31)CC(NS(=O)(=O)c1ccc(F)cc1)CC2 (stereo not shown) [Example 17] was tested. Which IC50 did it give?
**A.** 1000 nM
